Earlier results on one compound are cited in patent US7879357B2 (priority 2003, dated 2011).

The conditions of this series: skin of the retro-auricular region and the scrotum.

On to `C[C@]12CCC(=O)C=C1CC[C@@H]1[C@@H]2[C@@H](O)C[C@@]2(C)[C@H]1CC[C@]2(O)C(=O)CO` [hydrocortisone], for which the “uptake rate through the skin compared to the lower arm” value is listed as “up to 40 ×”.
